Experimental findings from PubChem BioAssay AID264 (DTP/NCI, 2004) are described below.

“And” between values parts separate entries of the source, which are not always exact repeats. Equal values may be shown once. Records with an inconclusive call do not appear.

The test system of the test is nude mice, LX-1 lung xenograft intrarenal, tumor weight T/C. Kind of test: NCI In Vivo Anticancer Drug Screen. Data for tumor model Human Lung LX-1 Xenograft (intrarenal inoculation) in NU/NU Swiss (nude) mice. The conditions noted are these: endpoint: mean tumor weight change, higher = larger tumour. Here is the method: The antitumor activity of compounds was measured in mice bearing transplantable tumors. Survival or tumor size were measured and the results are expressed as the measurement made in the treated group (T) divided by the measurement made in the vehicle treated control group (C). The tumor model used in this assay is Human Lung LX-1 Xenograft (intrarenal inoculation) in NU/NU Swiss (nude) mice
On the technique in general: A xenograft is tissue or cells of one species grown in another, often human tumour cells in immunodeficient mice.

The mark [1] stands for this setting: dose: 100.0 mg/kg/injection, schedule: Q04DX003 (sc), vehicle: saline.
The mark [2] stands for this setting: dose: 150.0 mg/kg/injection, schedule: Q04DX003 (sc), vehicle: suspension in saline.
Setting [3] is: dose: 200.0 mg/kg/injection, schedule: Q01DX010 (sc), vehicle: Klucel (hydroxypropylcellulose) (HPC).
[4] abbreviates: dose: 400.0 mg/kg/injection, schedule: Q01DX010 (sc), vehicle: Klucel (hydroxypropylcellulose) (HPC).
[5] abbreviates: dose: 150.0 mg/kg/injection, schedule: Q04DX003 (sc), vehicle: saline with Tween-80.
[6] abbreviates: dose: 1200.0 mg/kg/injection, schedule: Q04DX003 (sc), vehicle: saline with Tween-80.

Turning to `C1CN2CCC1CC2`, the T/C reads like this: (dose: 4.69 mg/kg/injection, schedule: Q04DX003 (sc), vehicle: saline with Tween-80) 96 % of control; (dose: 9.38 mg/kg/injection, schedule: Q04DX003 (sc), vehicle: saline with Tween-80) 73 % of control; (dose: 18.75 mg/kg/injection, schedule: Q04DX003 (sc), vehicle: saline with Tween-80) 68 % of control.
Take `N=C(N)SCc1cccc2c(=O)cc(-c3ccccc3)oc12`: the T/C was 51 % of control (dose: 300.0 mg/kg/injection, schedule: Q04DX003 (sc), vehicle: suspension in saline); 39 % of control (dose: 600.0 mg/kg/injection, schedule: Q04DX003 (sc), vehicle: suspension in saline); 63 % of control (dose: 1200.0 mg/kg/injection, schedule: Q04DX003 (sc), vehicle: suspension in saline).
Turning to `CC(=O)O[C@@H]1[C@@H](O)C2=C3[C@]4(C)[C@@H]1C(C)(C)C(=O)C[C@@H]4[C@]3(O)[C@H](OC(C)=O)[C@@]1(C[C@@H]1C)C2=O`, the T/C by setting is: (dose: 12.5 mg/kg/injection, schedule: Q01DX010 (sc), vehicle: saline with Tween-80) 104 % of control; (dose: 25.0 mg/kg/injection, schedule: Q01DX010 (sc), vehicle: saline with Tween-80) 58 % of control; (dose: 50.0 mg/kg/injection, schedule: Q01DX010 (sc), vehicle: saline with Tween-80) 207 % of control.
For `O=C(/C=C(\Cl)C(=O)NO)NO`, under setting [1], the T/C was 103 % of control.
Turning to `CCC(C(=O)O)C(=O)O.[NH2-].[NH2-].[Pt+2]`, the T/C was 110 % of control (dose: 37.5 mg/kg/injection, schedule: Q04DX003 (sc), vehicle: saline); 54 % of control (dose: 75.0 mg/kg/injection, schedule: Q04DX003 (sc), vehicle: suspension in saline); 92 % of control under setting [1]; 46 % of control (dose: 100.0 mg/kg/injection, schedule: Q04DX003 (sc), vehicle: suspension in saline); 40 % of control under setting [2]; 76 % of control (dose: 200.0 mg/kg/injection, schedule: Q04DX003 (sc), vehicle: saline). Moreover, the T/C (dose: 200.0 mg/kg/injection, schedule: Q04DX003 (sc), vehicle: suspension in saline) is 27 % of control.
As to `Cc1ccc2c(ccc(CC(=S)[S-])[n+]2C)c1`, the T/C was 56 % of control (dose: 50.0 mg/kg/injection, schedule: Q01DX010 (sc), vehicle: Klucel (hydroxypropylcellulose) (HPC)); 99 % of control (dose: 100.0 mg/kg/injection, schedule: Q01DX010 (sc), vehicle: Klucel (hydroxypropylcellulose) (HPC)); 207 % of control under setting [3]; 72 % of control under setting [4].
For `C=CS(C=C)=NS(=O)(=O)c1ccc(C)cc1`, the T/C was 108 % of control (dose: 18.75 mg/kg/injection, schedule: Q04DX003 (sc), vehicle: Klucel (hydroxypropylcellulose) (HPC)); 163 % of control (dose: 37.5 mg/kg/injection, schedule: Q04DX003 (sc), vehicle: Klucel (hydroxypropylcellulose) (HPC)); 71 % of control (dose: 75.0 mg/kg/injection, schedule: Q04DX003 (sc), vehicle: Klucel (hydroxypropylcellulose) (HPC)).
Consider `Cc1c(N)nc(C(CC(N)=O)NCC(N)C(N)=O)nc1C(=O)NC(C(=O)NC(C)C(O)C(C)C(=O)NC(C(=O)NCCc1nc(-c2nc(C(=O)NCCCNC(C)c3ccccc3)cs2)cs1)C(C)O)C(OC1OC(CO)C(O)C(O)C1OC1OC(CO)C(O)C(OC(N)=O)C1O)c1cnc[nH]1` (stereo not given), for which the T/C reads like this: (dose: 2.0 mg/kg/injection, schedule: Q01DX010 (sc), vehicle: saline) 53 % of control; (dose: 4.0 mg/kg/injection, schedule: Q01DX010 (sc), vehicle: saline) 32 % of control; (dose: 16.0 mg/kg/injection, schedule: Q01DX010 (sc), vehicle: saline) 22 % of control and 28 % of control; (dose: 32.0 mg/kg/injection, schedule: Q01DX010 (sc), vehicle: saline) 39 % of control.
As for `CCCCNC(C)C1(O)Cc2c(O)c3c(c(O)c2C(OC2CC(N)C(O)C(C)O2)C1)C(=O)c1c(OC)cccc1C3=O` (stereo not given), the T/C was 99 % of control (dose: 300.0 mg/kg/injection, schedule: Q04DX003 (sc), vehicle: water) and 84 % of control (dose: 600.0 mg/kg/injection, schedule: Q04DX003 (sc), vehicle: water).
With `COCC1OC2OC3C(COC)OC(OC4C(COC)OC(OC5C(COC)OC(OC6C(COC)OC(OC7C(COC)OC(OC8C(COC)OC(OC1C(O)C2O)C(O)C8O)C(O)C7O)C(O)C6O)C(O)C5O)C(O)C4O)C(O)C3O` (stereo not given) (tested in a mixture with another compound), under “dose: 200.0 mg/kg/injection, schedule: Q04DX003 (sc), vehicle: Klucel (hydroxypropylcellulose) (HPC)”, the T/C was 156 % of control.
Regarding `CS(=O)(=O)CS(=O)(=O)OCCCl`, under setting [2], the T/C is 94 % of control.
In the case of `COC(C(=O)C(O)C(C)O)C1Cc2cc3cc(OC4CC(OC(C)=O)C(OC5CC(O)C(OC)C(C)O5)C(C)O4)cc(O)c3c(O)c2C(=O)C1OC1CC(OC2CC(OC3CC(C)(O)C(OC(=O)C(C)C)C(C)O3)C(O)C(C)O2)C(O)C(C)O1` (stereo not given), the T/C reads like this: (dose: 1.0 mg/kg/injection, schedule: Q04DX003 (sc), vehicle: saline with Tween-80) 77 % of control; (dose: 2.0 mg/kg/injection, schedule: Q04DX003 (sc), vehicle: saline with Tween-80) 58 % of control; (dose: 4.0 mg/kg/injection, schedule: Q01DX010 (sc), vehicle: saline with Tween-80) 12 % of control and 30 % of control; (dose: 4.0 mg/kg/injection, schedule: Q04DX003 (sc), vehicle: saline with Tween-80) 50 % of control.
For `F[B-](F)(F)F`, the T/C (dose: 300.0 mg/kg/injection, schedule: Q04DX003 (sc), vehicle: gum acacia) was 103 % of control; the T/C (dose: 600.0 mg/kg/injection, schedule: Q04DX003 (sc), vehicle: gum acacia) was 101 % of control; the T/C (dose: 1200.0 mg/kg/injection, schedule: Q04DX003 (sc), vehicle: gum acacia) is 84 % of control.
As to `O=c1[nH]c(=O)n(C2CC(O)C(CO)O2)cc1Br` (stereo not given), the T/C by setting is: under setting [3], 35 % of control; under setting [4], 35 % of control; (dose: 800.0 mg/kg/injection, schedule: Q01DX010 (sc), vehicle: Klucel (hydroxypropylcellulose) (HPC)) 27 % of control.
For `C=C(C)[C@@H]1CCc2c(O)c(O)c(=O)cc(C)c2C1`, the T/C runs as follows: (dose: 300.0 mg/kg/injection, schedule: Q04DX003 (sc), vehicle: saline) 106 % of control; (dose: 600.0 mg/kg/injection, schedule: Q04DX003 (sc), vehicle: saline) 62 % of control; (dose: 1200.0 mg/kg/injection, schedule: Q04DX003 (sc), vehicle: saline) 90 % of control; (dose: 2400.0 mg/kg/injection, schedule: Q04DX003 (sc), vehicle: saline) 85 % of control.
Consider `O=c1[nH]c(=O)n(C2CC(O)C(CO)O2)cc1F` (stereo not given), for which the T/C by setting is: (dose: 50.0 mg/kg/injection, schedule: Q01DX010 (sc), vehicle: water) 77 % of control; (dose: 100.0 mg/kg/injection, schedule: Q01DX010 (sc), vehicle: water) 39 % of control.
For `CNC(=O)c1cccc2c(Nc3ccc(NS(C)(=O)=O)cc3OC)c3cccc(C)c3nc12`, the T/C (dose: 50.0 mg/kg/injection, schedule: Q04DX003 (sc), vehicle: water) is 69 % of control.
Turning to `Nc1nc2c(C(=O)N3CCCC3)nnn2c2ccccc12`, the T/C under setting [5] was 55 % of control.
Turning to `CCCCCC1c2cc(O)ccc2OC1N1CCOCC1` (stereo not given), the T/C by setting is: (dose: 600.0 mg/kg/injection, schedule: Q04DX003 (sc), vehicle: saline with Tween-80) 150 % of control; under setting [6], 52 % of control; (dose: 2400.0 mg/kg/injection, schedule: Q04DX003 (sc), vehicle: saline with Tween-80) 89 % of control.
For `O=C(NP(=O)(N1CC1)N1CC1)c1cc(I)ccc1I`, the T/C is, setting by setting: (dose: 50.0 mg/kg/injection, schedule: Q01DX010 (sc), vehicle: saline) 73 % of control; (dose: 100.0 mg/kg/injection, schedule: Q01DX010 (sc), vehicle: saline) 54 % of control.
On to `C[Si](C)(CCl)N[Si](C)(C)CCl`, for which the T/C under setting [6] was 81 % of control.
With `OC1CCCC2CCCNC12` (stereo not given), the T/C (dose: 37.5 mg/kg/injection, schedule: Q04DX003 (sc), vehicle: saline with Tween-80) was 81 % of control; the T/C (dose: 75.0 mg/kg/injection, schedule: Q04DX003 (sc), vehicle: saline with Tween-80) is 93 % of control; the T/C under setting [5] was 75 % of control.
In the case of `CCN1/C(=C/C=C/C=C/c2sc3ccccc3[n+]2CC)Sc2ccccc21`, the T/C (dose: 1.5 mg/kg/injection, schedule: Q04DX003 (sc), vehicle: saline) is 57 % of control.
